# Patent US6555733B2, “Genes coding for amino acid deacetylases with specificity for N-acetyl-L-phosphinothricin, their isolation and use” (priority 1996, dated 2003)
# B1: N-acetyl-PPT deacetylase: deacetylase from Stenotrophomonas sp., 454 amino acids (SEQ ID NO:2), purified from E. coli as GST fusion cleavage product (protein)
# chain: MIRKTVLLTALSCALASATATAAEGQRPEVEAAAARLQRQVVEWRRDFHQHPELSNREVRTAAKVAERLRAMGLQPQTGVAVHGVVAIIKGALPGPKIALRADMDALPVTEQTGLPFASTATAEYRGEKVGVMHACGHDAHTATLLGVADALVAMRDTLPGEVMLIFQPAEEGAPPPEQGGAELMLKEGLFKEFKPEAVFGLHVFSSVQAGQIAVRGGPLMAASDRFAITVNGRQTHGSAPWNGIDPIVAASDLIGTAQTIVSRRANLSKQPAVLTFGAIKGGIRYNIIPDSVEMVGTIRTFDPDMRKQIFADLRNVAEHTAAAHGATATTDIYEKDGNPATVNDPALTARMLPSLQAVVGKDNVYEPPLQMGSEDFSLYAQQVPAMFFFVGSTGAGIDPATAPSNHSPKFLLDEKALDVGLRALLQVSLDYLHGGKAG
# modifications: Stenotrophomonas sp
# What was measured:
# [1] = test system: flower buds of tobacco plants (tap1 promoter-deac1 transformants, NT Sam NN controls); experiment: Flower bud treatment, induced male sterility in pPCVTDEAC1 tobacco plants; format: in vivo, Nicotiana tabacum
# Source text: Using standard methods, the tapetum-specific promoter of the tap1 gene from snapdragon (Antirrhinum majus) was fused in the vector pUC18 as a 2.2 kb EcoRI/BamHI fragment with the deac1 structural gene (1.4 kb BamHI/SalI-PCR fragment) and the 35S terminator. The expression cassette tap1 promoter-deac structural gene-35S terminator thus resulting was cloned into the binary vector pPCV801 as a 3.8 kb EcoRI fragment instead of the 35S promoter/terminator region (plasmid pPCVTDEAC1, FIG. 3). The transformation of tobacco was carried out as described in Example 4.
# In the case of tapetum-specific expression of the deacetylase, it should be possible by treatment of the flower buds with N-acetyl-PPT to induce male-sterile flowers. The conversion of the PPT derivative into the herbicidal active compound phosphinothricin leads to selective damage to the tapetum tissue, by means of which the development of functional pollen is prevented.
# In each case only one side of the inflorescences (the total area of the developing flower buds) was treated with N-acetyl-PPT, the other side of the influorescences remained untreated in order to ensure that the phenomena to be observed are not to be attributed to deformities of the respective plants. The treatment was carried out at a time at which the individual buds were not larger than 5 mm (active phase for tapetum promoter). The tobacco transformants and also a number of NT Sam NN control plants were treated 3× with 0.2% N-acetyl-D,L-PPT(=7.5 mM)/0.1% Genapol (wetting agent) within one week. After the blooming of the buds (about 9-11 days after conclusion of the treatment), the plants were investigated for the occurrence of male-sterile flowers.
# [2] = test system: leaves of tobacco plants (35S promoter-deac1 transformants, nontransgenic controls); experiment: Drop experiment on leaves of pPCVKDEAC1 tobacco plants and nontransgenic control plants; format: in vivo, Nicotiana tabacum; design: key to Drop experiment, leaf symptoms: +++: severe necrosis; ++: marked damage; +: slight lightening; −: no symptoms
# Source text: The deac1 structural gene was recloned as a 1.4 kb BamHI/SalI PCT fragment into the binary vector pPCV801 (Koncz and Schell, 1986, Mol. Gen. Genet. 204: 383-396) under control of the 35S promoter. The resulting plasmid pPCVKDEAC1 (FIG. 2) with the expression vector 35S promoter-deac1-structural gene-35S terminator was transformed in Agrobacterium tumefaciens (strain ATHV) using standard methods. Pieces of tobacco leaf (Nicotiana tabacum) were transformed with the recombinant Agrobacteria according to the method of Horsch et al., 1985, Science 227: 1229-1231 and selected on kanamycin medium, 18 independent tobacco transformants were regenerated and tested for expression of the deacetylase in the leaves. In the case of activity of the protein in the transgenic plants, a sensitivity of the leaves to N-acetyl-PPT was to be expected, because the substance in the plant is then converted into the herbicidal active compound phosphinothricin on account of the enzymatic activity of the deacetylase.
# In a drop experiment, the leaves of the transgenic plants and of a number of nontransgenic control plants were treated with 5 μl each of the following concentrations of N-acetyl-D,L-PPT: 4 mg/ml(=15 mM), 1 mg/ml(=3.75 mM), 0.4 mg/ml(=1.5 mM), 0.1 mg/ml(=0.38 mM). The treatment sites were examined for lightening or necrosis formation after 1-2 weeks. Simultaneously, the N-acetyl-PPT-specific deacetylase activity of the transformants, and also of the control plants, was measured in crude extracts. To do this, 100 mg each of leaf material were homogenized in 200 μl of PBS buffer, the cell debris was centrifuged off and the protein-containing supernatants were dialyzed overnight at 4° C. against the same buffer. 10 μl each of these samples were incubated with 0.1 mM [^14C]-N-acetyl-L-PPT overnight at 37° C. The batches were then analyzed in the HPLC, as described above, for formation of [^14C]-L-PPT.
# [3] = test system: N-acetyl-PPT deacetylase (Deac1 protein); experiment: Radioactive test of purified N-acetyl-PPT deacetylase (Deac1) with [14C]-N-acetyl-L-PPT, HPLC; format: biochemical, Stenotrophomonas sp.; conditions: for Km: substrate [14C]-N-acetyl-L-PPT 0.01-1 mM, pH=8.0, 1 mM CoCl2, 3-fold determinations; for Spec. activity: substrate [14C]-N-acetyl-L-PPT
# [4] = test system: N-acetyl-PPT deacetylase (Deac1 protein); experiment: Nonradioactive test, substrate specificity of purified deacetylase (amino acid analyzer); format: biochemical, Stenotrophomonas sp.; conditions: 25 mM substrate; for Rel. activity: 60 min, 28 °C, 5 μg enzyme, hippuric acid set equal to 100%
# Description: (2) Nonradioactive test: To investigate the substrate specificity, 5 μg each of purified enzyme were incubated for 60 min. at 28° C. in 20 μl batches in PBS buffer with, in each case, 25 mM of a certain N-acetyl- or N-acylamino acid. The samples were then measured in an amino acid analyzer (Biotronic LC 5001) for formation of the free amino acids. The specific activities were determined in [nmol of amino acid/min/mg of protein]. For the N-acetyl-PPT deacetylase, a pH optimum of pH=8 (see Tab. 1) and a temperature optimum of 37° C. (see Tab. 2) were determined. […] By addition of 1 mM CoCl2, the enzyme activity could be increased by about 20%.
molecule,measurement,setting,value
"CC(=O)NC(CCP(C)(=O)O)C(=O)O (racemic) [N-acetyl-D,L-PPT, N-acetylphosphinothricin]","Number of sterile or pollen-reduced flowers, treated","[1]; Control plant, 3x 0.2% N-acetyl-D,L-PPT/0.1% Genapol within one week",0
same,"Number of sterile or pollen-reduced flowers, treated",[1]; plant pPCT16,10
same,"Number of sterile or pollen-reduced flowers, treated",[1]; plant pPCVT14,18
same,"Number of sterile or pollen-reduced flowers, treated",[1]; plant pPCVT15,0
same,induction of male-sterile flowers (in words),"[1]; tapetum-specific expression, buds treated with 2 mg/ml (=1 mg/ml of L-enantiomer), greenhouse plants",induction of male-sterile flowers was achieved
same,"Drop experiment, leaf symptoms","[2]; Control plant, 0.1 mg/ml",−
same,"Drop experiment, leaf symptoms","[2]; Control plant, 0.4 mg/ml",−
same,"Drop experiment, leaf symptoms","[2]; Control plant, 1 mg/ml",−
same,"Drop experiment, leaf symptoms","[2]; Control plant, 4 mg/ml, 5 μl, after 1-2 weeks",−
same,concentration to which leaves still react sensitively,"[2]; constitutive expression of the deac gene, greenhouse plants (=0.2 mg/ml of L-enantiomer)",0.4 mg/mL
same,"Drop experiment, leaf symptoms","[2]; plant pPCVK9, 0.1 mg/ml",−
same,"Drop experiment, leaf symptoms","[2]; plant pPCVK9, 0.4 mg/ml",−
same,"Drop experiment, leaf symptoms","[2]; plant pPCVK9, 1 mg/ml",+
same,"Drop experiment, leaf symptoms","[2]; plant pPCVK9, 4 mg/ml",+++
same,"Drop experiment, leaf symptoms","[2]; plant pPCVK14, 0.1 mg/ml",−
same,"Drop experiment, leaf symptoms","[2]; plant pPCVK14, 0.4 mg/ml",−
same,"Drop experiment, leaf symptoms","[2]; plant pPCVK14, 1 mg/ml",+
same,"Drop experiment, leaf symptoms","[2]; plant pPCVK14, 4 mg/ml",+
same,"Drop experiment, leaf symptoms","[2]; plant pPCVK15, 0.1 mg/ml",−
same,"Drop experiment, leaf symptoms","[2]; plant pPCVK15, 0.4 mg/ml",+
same,"Drop experiment, leaf symptoms","[2]; plant pPCVK15, 1 mg/ml",+
same,"Drop experiment, leaf symptoms","[2]; plant pPCVK15, 4 mg/ml",++
same,"Drop experiment, leaf symptoms","[2]; plant pPCVK16, 0.1 mg/ml",−
same,"Drop experiment, leaf symptoms","[2]; plant pPCVK16, 0.4 mg/ml",−
same,"Drop experiment, leaf symptoms","[2]; plant pPCVK16, 1 mg/ml",+
same,"Drop experiment, leaf symptoms","[2]; plant pPCVK16, 4 mg/ml",+
same,"Drop experiment, leaf symptoms","[2]; plant pPCVK17, 0.1 mg/ml",−
same,"Drop experiment, leaf symptoms","[2]; plant pPCVK17, 0.4 mg/ml",−
same,"Drop experiment, leaf symptoms","[2]; plant pPCVK17, 1 mg/ml",+
same,"Drop experiment, leaf symptoms","[2]; plant pPCVK17, 4 mg/ml",+
[Cl-].[Cl-].[Co+2] [CoCl2],increase of enzyme activity,[3],about 20%
"O=C(O)CNC(=O)c1ccccc1 [Hippuric acid, N-benzoylglycine]",conversion by the deacetylase (in words),[4],highest conversions
same,Rel. activity,[4],100%
"CC(=O)N[C@@H](CCC(=O)O)C(=O)O [N-Ac-glutamic acid, N-acetyl-L-glutamate]",conversion by the deacetylase (in words),[4],highest conversions
same,Rel. activity,[4],100%
CC(=O)N[C@@H](CCC(N)=O)C(=O)O [N-Ac-glutamine],Rel. activity,[4],30%
CC(=O)NCC(=O)O [N-Ac-glycine],Rel. activity,[4],59%
CC(=O)N[C@@H](Cc1cnc[nH]1)C(=O)O [N-Ac-histidine],Rel. activity,[4],43%
CC(=O)N[C@@H](CC(C)C)C(=O)O [N-Ac-leucine],Rel. activity,[4],33%
CSCCC(NC(C)=O)C(=O)O (stereo not drawn) [N-Ac-methionine],Rel. activity,[4],0%
CC(=O)N[C@@H](CCCN)C(=O)O [N-Ac-ornithine],Rel. activity,[4],37%
CC(=O)NC(Cc1ccccc1)C(=O)O (stereo not drawn) [N-Ac-phenylalanine],Rel. activity,[4],24%
CC(=O)N1CCCC1C(=O)O (stereo not drawn) [N-Ac-proline],Rel. activity,[4],0%
CC(=O)NC(CO)C(=O)O (stereo not drawn) [N-Ac-serine],Rel. activity,[4],4%
CC(=O)NC(Cc1c[nH]c2ccccc12)C(=O)O (stereo not drawn) [N-Ac-tryptophan],Rel. activity,[4],0.4%
CC(=O)N[C@@H](Cc1ccc(O)cc1)C(=O)O [N-Ac-tyrosine],Rel. activity,[4],11%
CC(=O)N[C@H](C(=O)O)C(C)C [N-Ac-valine],Rel. activity,[4],2%
"CC(=O)N[C@@H](CCP(C)(=O)O)C(=O)O [N-acetyl-L-PPT, N-acetyl-L-phosphinothricin]",affinity below that for hippuric acid and N-acetyl-L-glutamate,[4],approximately 50%
same,Rel. activity,[4],43%
same,Km,[3],670 µM
B1,Spec. activity,[3]; 28 °C,9.6 nmol/min/mg of protein
same,Spec. activity,[3]; 37 °C,16.8 nmol/min/mg of protein
same,Spec. activity,[3]; 50 °C,14.9 nmol/min/mg of protein
same,Spec. activity,[3]; 60 °C,4.3 nmol/min/mg of protein
same,Spec. activity,[3]; pH 6,2.4 mol/min/mg of protein
same,Spec. activity,[3]; pH 8,12.0 mol/min/mg of protein
same,Km,[3],670 µM
